Structures are written as SMILES. Where a name gives a salt, the structure may show the parent alone.

Common to all, as to assay: In vitro activity, dilution method in a liquid medium (MIC)
Common to all, as to type: cell-based

The subject of one assay is Escherichia Coli T E M. To be noted: 24 H. As to the method: (§1) In vitro activity, dilution method in a liquid medium.
(§2) A series of tubes were prepared in which an equal quantity of sterile nutritive medium was distributed. Increasing quantities of the product under test were distributed into each tube and then each tube was seeded with a bacterial strain. After incubation for 24 or 48 hours in an incubator at 37° C., the inhibition of the growth was estimated by transillumination, which enabled the minimal inhibiting concentrations (M.I.C.), expressed in micrograms/ml to be determined.

In assay [1] the test system is Streptococcus pyogenes 77 A. The note with it: 24 H. The protocol:
as §1, §2

The next assay concerns Providencia Du 48. The note with it: DU48, 24 H. As to the method: as §1, §2
A further assay concerns Escherichia Coli UC 1894. To be noted: UC1894, 24 H. As to the method: as §1, §2
A further assay concerns Escherichia Coli O 75. The note with it: COLIO75, 24 H. The protocol:
as §1, §2

The next assay deals with Escherichia Coli DC 0. To be noted: COLIDC0, 24 H. The protocol:
as §1, §2

The test system of assay [2] is Pseudomonas aeruginosa 1771 m. To be noted: 24 H. The protocol:
as §1, §2

The test system of assay [3] is Kiebsiella aerogenes 1 522 E. The note with it: 24 H. As to the method:
as §1, §2

For assay [4], the system named is Saimonella typhimurium MZ 11. The note with it: 24 H. As to the method:
as §1, §2

For assay [5], the system named is Enterobacter cloacae 1 321 E. The note with it: 1321E, 24 H. As to the method:
as §1, §2

For assay [6], the system named is Proteus vulgaris (indol) A 232. To be noted: 24 H. As to the method: as §1, §2
For a further assay, the system named is Escherichia Coli DC 2. The note with it: COLIDC2, 24 H. As to the method: as §1, §2
The test system of another assay is Serratia RG 2 532. To be noted: RG2532, 24 H. As to the method: as §1, §2
Assay [7] has as its system Staphylococcus aureus 285. The note with it: 24 H. As to the method: as §1, §2
In assay [8] the test system is Staphylococcus aureus Exp. n° 54 146. The note with it: 24 H. The protocol: as §1, §2
The subject of assay [9] is Streptococcus pyogenes A 561. The note with it: A561, 24 H. The protocol: as §1, §2
The subject of assay [10] is Kiebsiella pneumoniae Exp. 52 145. The note with it: 24 H. The protocol:
as §1, §2

The subject of assay [11] is Proteus mirabilis (indol-) A 235. To be noted: 24 H. As to the method:
as §1, §2

The next assay has as its system Escherichia Coli 1507 E. To be noted: COLI1507E, 24 H. The protocol: as §1, §2

Turning to `Nc1nc(/C(=N/OC(F)F)C(=O)N[C@@H]2C(=O)N3C(C(=O)[O-])=C(/C=C/C[n+]4cccc5ccsc54)CS[C@H]23)cs1` [ex. 2, (6R,7R)-7-[[(2-amino-4-thiazolyl) [(Z)]-[(difluoromethoxy)imino]]acetamido]-8-oxo-3 [(E) 3-[7-[thieno[2,3-b]pyridino]-1-propenyl]-5-thia-1-azabicyclo[4,2,0]oct-2-en-2-carboxylate (internal salt)], the MIC in the assay on Escherichia Coli T E M was 0.6 µg/mL; in assay [1], ≤ 0.01 µg/mL; against Providencia Du 48, 2.5 µg/mL; against Escherichia Coli UC 1894, 0.04 µg/mL; in the assay with Escherichia Coli O 75, 1.2 µg/mL; with Escherichia Coli DC 0 it was 2.5 µg/mL. The MIC worked out at 1.2 µg/mL in assay [2]; 0.6 µg/mL in [3]; 0.3 µg/mL in assay [4]; 0.3 µg/mL in assay [5]; 0.3 µg/mL in assay [6]; 0.6 µg/mL in the assay on Escherichia Coli DC 2. Besides, the MIC against Serratia RG 2 532 was 10 µg/mL; in assay [7] it was 5 µg/mL; in assay [8] it was 5 µg/mL; in assay [9], ≤ 0.01 µg/mL; in [10] it was 0.6 µg/mL; in assay [11] it was 0.08 µg/mL. The molecule also gave an MIC in the assay on Escherichia Coli 1507 E of 0.15 µg/mL.
Turning to `CO/N=C(\C(=O)N[C@@H]1C(=O)N2C(C(=O)O)=C(/C=C/C[n+]3cccc4ccsc43)CS[C@H]12)c1csc(N)n1` [ex. 1], the minimal inhibitory concentration (MIC) is 0.04 µg/mL against Escherichia Coli T E M; ≤ 0.01 µg/mL in assay [1]; 0.3 µg/mL in the assay with Providencia Du 48; ≤ 0.01 µg/mL in the assay with Escherichia Coli UC 1894; 0.02 µg/mL in the assay on Escherichia Coli O 75; 0.04 µg/mL in the assay with Escherichia Coli DC 0. The MIC was 0.6 µg/mL in [2]; 0.15 µg/mL in assay [3]; 0.04 µg/mL in assay [4]; 0.04 µg/mL in assay [5]; 0.3 µg/mL in assay [6]; 0.01 µg/mL in the assay with Escherichia Coli DC 2. Besides, the MIC against Serratia RG 2 532 is 0.15 µg/mL; in [7], 0.15 µg/mL; in [8], 0.3 µg/mL; in assay [9] it was ≤ 0.01 µg/mL; in assay [10], 0.08 µg/mL; in assay [11] it was 0.04 µg/mL. Also, the MIC in the assay on Escherichia Coli 1507 E was 0.01 µg/mL.
Take `CO/N=C(\C(=O)N[C@@H]1C(=O)N2C(C(=O)[O-])=C(/C=C/C[n+]3cccc4ccsc43)CS[C@H]12)c1csc(N)n1` [ex. 3, (6R,7R)-7-[[(2-amino-4-thiazolyl)-[(Z)[methoxyimino]]-acetamido]-8-oxo-3-[(E)-3-[7-[thieno[2,3-b]pyridinio]-1-propenyl]-5-thia-1-azabicyclo[4,2,0]oct-2-en-2-carboxylate (internal salt)]: the MIC against Escherichia Coli T E M was 0.6 µg/mL; in assay [1] it was ≤ 0.01 µg/mL; in the assay on Providencia Du 48 it was 1.2 µg/mL; against Escherichia Coli UC 1894 it was 0.08 µg/mL; in the assay on Escherichia Coli O 75 it was 0.3 µg/mL; in the assay on Escherichia Coli DC 0, 1.2 µg/mL. In addition, the minimum inhibitory concentration (MIC) in [2] was determined as 2.5 µg/mL; in [3], 0.6 µg/mL; in assay [4], 0.3 µg/mL; in assay [5], 0.6 µg/mL; in [6] it was 0.2 µg/mL; against Escherichia Coli DC 2 it was 0.08 µg/mL. The minimum inhibitory concentration (MIC) in the assay on Serratia RG 2 532 is 5 µg/mL; in [7], 2.5 µg/mL; in [8], 2.5 µg/mL; in assay [9], ≤ 0.01 µg/mL; in assay [10], 1.2 µg/mL; in [11] it was 0.04 µg/mL. Moreover, the MIC in the assay on Escherichia Coli 1507 E was found to be 0.04 µg/mL.

The values are drawn from patent publication US5075298A, “Cephalosporins” (Roussel Uclaf, priority 1987, dated 1991).
